US7648979B2, “5-amido-(1H-indol-2-yl)-piperazin-1-yl-methanone derivatives” (Hoffmann-La Roche Inc., priority 2007, dated 2010)
pKi: −log10 of the molar value.

target: histamine 3 receptor (H3R) (Homo sapiens, UniProt Q9Y5N1); assay: Binding Assay with 3H-(R)α-methylhistamine (competition binding, membranes of human H3R-CHO cell line); details: competition with 3H(R)α-methylhistamine (1 nM), Ki calculated from IC50 by Cheng-Prusoff
Description: Binding Assay with ^3H-(R)α-methylhistamine
Saturation binding experiments were performed using HR3-CHO membranes prepared as described in Takahashi, K, Tokita, S., Kotani, H. (2003) J. Pharmacol. Exp. Therapeutics 307, 213-218.
An appropriate amount of membrane (60 to 80 μg protein/well) was incubated with increasing concentrations of ^3H(R)α-Methylhistamine di-hydrochloride (0.10 to 10 nM). Non specific binding was determined using a 200 fold excess of cold (R)α-Methylhistamine dihydrobromide (500 nM final concentration). The incubation was carried out at room temperature (in deep-well plates shaking for three hours). The final volume in each well was 250 μl. The incubation was followed by rapid filtration on GF/B filters (pre-soaked with 100 μl of 0.5% PEI in Tris 50 mM shaking at 200 rpm for two hours). The filtration was made using a cell-harvester and the filter plates were then washed five times with ice cold washing buffer containing 0.5 M NaCl. After harvesting, the plates were dried at 55° C. for 60 min, then we added scintillation fluid (Microscint 40, 40 microl in each well) and the amount of radioactivity on the filter was determined in Packard top-counter after shaking the plates for two hours at 200 rpm at room temperature.
Binding Buffer: 50 mM Tris-HCl pH 7.4 and 5 mM MgCl2×6H2O pH 7.4. Washing Buffer: 50 mM Tris-HCl pH 7.4 and 5 mM MgCl2×6H2O and 0.5 M NaCl pH 7.4.
Indirect measurement of affinity of H3R inverse agonists: twelve increasing concentrations (ranging from 10 μM to 0.3 nM) of the selected compounds were always tested in competition binding experiments using membrane of the human H3R—CHO cell line. […]
All compounds were tested at a single concentration in duplicate. […] Ki's were calculated from IC50 based on Cheng-Prusoff equation (Cheng, Y, Prusoff, W H (1973) Biochem Pharmacol 22, 3099-3108): Ki=IC50/[1+D/Kd] wherein D is the concentration of the radioligand and Kd is the binding constant for the radioligand binding to the receptor under the conditions used in the competition experiment.

Chain of histamine 3 receptor (H3R) (Q9Y5N1 whole entry): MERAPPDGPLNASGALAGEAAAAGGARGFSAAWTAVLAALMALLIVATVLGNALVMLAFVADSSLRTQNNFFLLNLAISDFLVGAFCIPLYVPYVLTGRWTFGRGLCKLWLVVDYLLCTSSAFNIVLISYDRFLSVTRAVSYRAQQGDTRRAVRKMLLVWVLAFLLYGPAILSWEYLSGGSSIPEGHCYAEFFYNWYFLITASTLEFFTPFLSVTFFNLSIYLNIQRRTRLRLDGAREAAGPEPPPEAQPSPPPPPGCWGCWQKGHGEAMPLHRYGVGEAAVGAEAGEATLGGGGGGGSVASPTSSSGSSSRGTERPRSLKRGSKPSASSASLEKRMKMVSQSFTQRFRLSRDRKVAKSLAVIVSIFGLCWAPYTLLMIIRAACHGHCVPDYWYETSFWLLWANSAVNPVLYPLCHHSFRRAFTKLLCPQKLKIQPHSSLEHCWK

pKi	Compound
7.93	CC(C)N1CCN(C(=O)c2ccc3c(c2)cc(C(=O)N2CCN(S(C)(=O)=O)CC2)n3-c2ccnc(Cl)c2)CC1 [Example 7, [1-(2-Chloro-pyridin-4-yl)-5-(4-isopropyl-piperazine-1-carbonyl)-1H-indol-2-yl]-(4-methanesulfonyl-piperazin-1-yl)-methanone]
8.24	CC(C)N1CCN(C(=O)c2ccc3c(c2)cc(C(=O)N2CCN(S(=O)(=O)c4ccccc4)CC2)n3-c2ccnc(Cl)c2)CC1 [Example 17, (4-Benzenesulfonyl-piperazin-1-yl)-[1-(2-chloro-pyridin-4-yl)-5-(4-isopropyl-piperazine-1-carbonyl)-1H-indol-2-yl]-methanone]
8.12	CC(C)N1CCN(C(=O)c2ccc3c(c2)cc(C(=O)N2CCN(C(=O)N4CCCCC4)CC2)n3-c2ccnc(Cl)c2)CC1 [Example 19, [1-(2-Chloro-pyridin-4-yl)-5-(4-isopropyl-piperazine-1-carbonyl)-1H-indol-2-yl]-[4-(piperidine-1-carbonyl)-piperazin-1-yl]-methanone]
